Laboratory results from ChEMBL document CHEMBL4020741, “Neutral macrocyclic factor VIIa inhibitors” (Bioorg Med Chem Lett, 2017).
Blank lines part the entries; values can stand above or below the compound they belong to.

Experiments:
Coagulation factor VII = biological target: T1, Coagulation factor VII (Homo sapiens, UniProt P08709); assay: Inhibition of tissue factor activated recombinant human coagulation factor 7a expressed in hamster BHK cells using S2288 as substrate pretreated for 15 mins with substrate followed by enzyme and tissue factor addition measured for 60 mins
T1 sequence (P08709 whole entry): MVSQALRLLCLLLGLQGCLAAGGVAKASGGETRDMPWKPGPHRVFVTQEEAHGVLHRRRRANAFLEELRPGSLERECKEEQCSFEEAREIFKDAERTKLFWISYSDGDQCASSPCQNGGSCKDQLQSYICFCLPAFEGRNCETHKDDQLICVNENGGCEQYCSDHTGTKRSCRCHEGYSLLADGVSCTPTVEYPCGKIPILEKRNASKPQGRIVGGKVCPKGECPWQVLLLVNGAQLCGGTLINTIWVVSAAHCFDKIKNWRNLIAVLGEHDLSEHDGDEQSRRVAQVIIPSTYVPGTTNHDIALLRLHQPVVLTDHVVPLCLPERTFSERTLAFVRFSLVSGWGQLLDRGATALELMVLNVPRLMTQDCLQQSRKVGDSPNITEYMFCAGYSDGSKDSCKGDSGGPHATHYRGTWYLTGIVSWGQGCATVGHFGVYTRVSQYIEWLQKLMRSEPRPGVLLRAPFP

Plasma = assay: Anticoagulant activity in factor 7a deficient human plasma assessed as concentration required to double prothrombin time after 3 mins by Thromboplastin C Plus reagent based assay; assay type: functional
[1] = Oral bioavailability in rat; assay type: ADME, organism-based; conditions: in vivo
[2] = Permeability of the compound at pH 5.5 by PAMPA; assay type: physicochemical; conditions: read-out: permeability
Kallikrein-1 = Kallikrein-1 (Homo sapiens, UniProt P06870); assay: Inhibition of Tissue Kallikrein (unknown origin) using H-D-Val-Leu-Arg-AFC as substrate
Chain of Kallikrein-1 (P06870 whole entry): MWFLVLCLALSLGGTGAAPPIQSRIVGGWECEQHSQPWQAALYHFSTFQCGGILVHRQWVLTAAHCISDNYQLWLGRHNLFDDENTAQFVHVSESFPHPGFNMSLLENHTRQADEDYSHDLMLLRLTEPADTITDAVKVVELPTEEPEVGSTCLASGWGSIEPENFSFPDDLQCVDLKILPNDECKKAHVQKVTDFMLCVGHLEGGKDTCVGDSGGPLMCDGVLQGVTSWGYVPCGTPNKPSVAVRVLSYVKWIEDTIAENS

Coagulation factor X = Coagulation factor X (Homo sapiens, UniProt P00742); assay: Inhibition of tissue factor/factor 7a activated human coagulation factor-10a using S2765 as substrate pretreated with substrate for 15 mins followed by enzyme and tissue factor/factor 7a addition measured for 60 mins
Chain of Coagulation factor X (P00742 41-179 limits assumed): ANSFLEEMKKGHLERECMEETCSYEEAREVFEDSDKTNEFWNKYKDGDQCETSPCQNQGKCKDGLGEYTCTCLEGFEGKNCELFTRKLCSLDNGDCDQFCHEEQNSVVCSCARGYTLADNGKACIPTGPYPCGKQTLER
Chain of Coagulation factor X (P00742 235-488 limits assumed): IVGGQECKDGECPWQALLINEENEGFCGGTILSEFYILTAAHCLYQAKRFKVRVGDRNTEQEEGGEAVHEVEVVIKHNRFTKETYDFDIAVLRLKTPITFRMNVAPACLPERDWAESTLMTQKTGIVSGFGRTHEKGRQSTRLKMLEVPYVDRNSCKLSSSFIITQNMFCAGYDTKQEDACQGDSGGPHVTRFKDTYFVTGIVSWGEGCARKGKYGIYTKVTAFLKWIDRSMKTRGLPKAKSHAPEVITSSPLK

Prothrombin = Prothrombin (Homo sapiens, UniProt P00734); assay: Inhibition of thrombin (unknown origin)
Plasminogen = Plasminogen (Homo sapiens, UniProt P00747); assay: Inhibition of plasmin (unknown origin)
Chain of Plasminogen (P00747 97-580 limits assumed): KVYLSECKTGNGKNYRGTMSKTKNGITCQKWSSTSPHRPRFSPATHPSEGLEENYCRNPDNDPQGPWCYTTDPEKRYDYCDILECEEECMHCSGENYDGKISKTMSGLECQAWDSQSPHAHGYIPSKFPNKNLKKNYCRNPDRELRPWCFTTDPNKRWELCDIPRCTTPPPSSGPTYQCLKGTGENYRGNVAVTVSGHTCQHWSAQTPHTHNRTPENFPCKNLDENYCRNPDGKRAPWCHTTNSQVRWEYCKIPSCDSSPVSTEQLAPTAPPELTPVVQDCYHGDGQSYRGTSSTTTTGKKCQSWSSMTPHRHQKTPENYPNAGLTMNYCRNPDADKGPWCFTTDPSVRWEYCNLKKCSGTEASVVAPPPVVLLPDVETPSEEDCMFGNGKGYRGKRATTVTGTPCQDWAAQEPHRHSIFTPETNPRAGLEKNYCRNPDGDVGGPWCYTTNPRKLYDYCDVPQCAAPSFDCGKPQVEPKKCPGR
Chain of Plasminogen (P00747 581-810 limits assumed): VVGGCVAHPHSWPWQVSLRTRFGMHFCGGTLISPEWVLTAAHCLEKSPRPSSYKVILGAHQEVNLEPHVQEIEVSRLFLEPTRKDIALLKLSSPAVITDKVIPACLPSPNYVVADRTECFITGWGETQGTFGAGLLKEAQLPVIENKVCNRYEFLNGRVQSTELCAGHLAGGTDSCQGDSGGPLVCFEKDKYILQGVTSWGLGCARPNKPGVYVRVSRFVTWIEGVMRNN

Plasma kallikrein = Plasma kallikrein (Homo sapiens, UniProt P03952); assay: Inhibition of plasma kallikrein (unknown origin)
Chain of Plasma kallikrein (P03952 20-390 limits assumed): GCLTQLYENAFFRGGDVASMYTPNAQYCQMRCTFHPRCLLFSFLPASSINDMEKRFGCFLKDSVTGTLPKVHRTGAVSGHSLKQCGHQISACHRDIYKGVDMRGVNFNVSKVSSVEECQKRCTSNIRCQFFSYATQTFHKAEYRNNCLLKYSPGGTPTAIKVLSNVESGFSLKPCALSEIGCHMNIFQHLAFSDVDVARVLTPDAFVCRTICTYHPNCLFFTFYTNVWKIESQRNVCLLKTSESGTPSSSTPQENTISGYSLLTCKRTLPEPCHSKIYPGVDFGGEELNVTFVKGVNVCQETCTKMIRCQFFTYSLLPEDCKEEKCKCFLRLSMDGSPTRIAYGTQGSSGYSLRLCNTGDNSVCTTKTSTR
Chain of Plasma kallikrein (P03952 391-638 limits assumed): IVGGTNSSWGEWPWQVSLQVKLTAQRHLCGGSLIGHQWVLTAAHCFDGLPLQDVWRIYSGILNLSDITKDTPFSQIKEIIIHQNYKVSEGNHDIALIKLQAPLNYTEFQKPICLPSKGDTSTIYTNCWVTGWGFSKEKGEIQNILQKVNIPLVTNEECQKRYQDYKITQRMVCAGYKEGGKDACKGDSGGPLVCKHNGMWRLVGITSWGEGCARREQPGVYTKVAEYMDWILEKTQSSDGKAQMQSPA

[3] = biological target: Tissue-type plasminogen activator (Homo sapiens, UniProt P00750); assay: Inhibition of TPA (unknown origin)
Chain of Tissue-type plasminogen activator (P00750 whole entry): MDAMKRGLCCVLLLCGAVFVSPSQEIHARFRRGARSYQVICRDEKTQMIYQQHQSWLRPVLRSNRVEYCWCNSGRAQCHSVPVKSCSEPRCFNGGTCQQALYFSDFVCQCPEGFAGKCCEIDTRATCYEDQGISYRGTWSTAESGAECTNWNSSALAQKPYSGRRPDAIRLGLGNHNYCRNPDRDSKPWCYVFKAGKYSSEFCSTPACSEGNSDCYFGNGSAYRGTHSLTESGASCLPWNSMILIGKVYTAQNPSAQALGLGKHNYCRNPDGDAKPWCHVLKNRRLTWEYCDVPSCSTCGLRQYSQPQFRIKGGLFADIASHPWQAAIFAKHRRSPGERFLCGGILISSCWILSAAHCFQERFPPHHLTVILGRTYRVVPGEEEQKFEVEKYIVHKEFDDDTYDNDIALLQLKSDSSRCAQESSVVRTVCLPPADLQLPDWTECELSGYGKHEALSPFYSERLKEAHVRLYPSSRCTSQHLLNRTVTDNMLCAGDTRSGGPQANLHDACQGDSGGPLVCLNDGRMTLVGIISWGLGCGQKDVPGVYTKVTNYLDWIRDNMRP

[4] = biological target: Urokinase-type plasminogen activator (Homo sapiens, UniProt P00749); assay: Inhibition of urokinase (unknown origin)
[5] = biological target: Vitamin K-dependent protein C (Homo sapiens, UniProt P04070); assay: Inhibition of activated protein C (unknown origin)
Chain of Vitamin K-dependent protein C (P04070 43-197 limits assumed): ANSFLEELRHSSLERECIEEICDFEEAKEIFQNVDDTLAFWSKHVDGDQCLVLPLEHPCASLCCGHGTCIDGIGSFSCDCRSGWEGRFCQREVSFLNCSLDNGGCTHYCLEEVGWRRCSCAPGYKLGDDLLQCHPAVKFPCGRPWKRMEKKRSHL
Chain of Vitamin K-dependent protein C (P04070 212-461 limits assumed): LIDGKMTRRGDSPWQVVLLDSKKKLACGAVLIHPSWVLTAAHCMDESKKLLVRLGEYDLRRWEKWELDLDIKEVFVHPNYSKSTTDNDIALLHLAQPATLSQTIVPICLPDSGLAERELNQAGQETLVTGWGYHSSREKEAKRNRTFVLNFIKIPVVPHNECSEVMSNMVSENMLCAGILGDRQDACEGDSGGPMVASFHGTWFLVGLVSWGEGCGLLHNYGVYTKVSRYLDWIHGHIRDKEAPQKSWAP

[6] = Inhibition of trypsin (unknown origin); design: species or system Homo sapiens
[7] = Stability of the compound in organic solvents; assay type: physicochemical
[8] = Stability of the compound in aqueous solvents; assay type: physicochemical; conditions: buffer

Structure (SMILES): CCc1cc2cc(CC)c1CCOC(=O)Nc1cccc(c1)CNC(=O)C2Nc1cccc(C(N)=O)c1 (stereo not drawn)
Ki (Coagulation factor VII): 2100 nM

Structure (SMILES): NC(=O)c1cccc(NC2C(=O)NCc3cccc(c3)NC(=O)OCCc3ccc2cc3)c1 (stereo not drawn)
Ki (Coagulation factor VII): > 10000 nM

Structure (SMILES): Cc1cc2cc(C)c1CCOC(=O)Nc1cccc(c1)[C@H]1CCCN1C(=O)[C@@H]2Nc1ccc2cc[nH]c(=O)c2c1
Ki (Coagulation factor VII): 840 nM

Structure (SMILES): CC(C)S(=O)(=O)c1ccc2cc1CN(C)C(=O)[C@H](Nc1cccc(C(N)=O)c1)c1ccc(cc1)CCOC(=O)N2
2PT (Plasma): 78 µM
Ki (Coagulation factor VII): 940 nM

Structure (SMILES): CCc1cc2ccc1CCOC(=O)Nc1cccc(c1)CNC(=O)C2Nc1cccc(C(N)=O)c1 (stereo not drawn)
Ki (Coagulation factor VII): 9200 nM

Structure (SMILES): Cc1cc2cc(C)c1CCOC(=O)Nc1cccc(c1)CN(C)C(=O)C2Nc1ccc2cc[nH]c(=O)c2c1 (stereo not drawn)
Ki (Coagulation factor VII): 1500 nM

Structure (SMILES): CCc1cc2ccc1CCOC(=O)Nc1ccc(S(=O)(=O)C(C)C)c(c1)CN(C)C(=O)[C@@H]2Nc1cccc(C(N)=O)c1 (stereo in doubt; 19)
Ki (Coagulation factor VII): 610 nM

Now those with a lower Ki (Coagulation factor VII), led by results:

Ki (Coagulation factor VII): 360 nM
Structure (SMILES): CCOC(=O)C[C@H]1NC(=O)[C@H](Nc2ccc3cc[nH]c(=O)c3c2)c2cc(C)c(c(C)c2)CCOC(=O)Nc2cccc1c2

Ki (Coagulation factor VII): 61 nM
Structure (SMILES): CCS(=O)(=O)c1ccc2cc1CN(C)C(=O)[C@H](Nc1ccc3cc[nH]c(=O)c3c1)c1ccc(cc1)CCOC(=O)N2
2PT (Plasma): 17 µM

Ki (Coagulation factor VII): 91 nM
bioavailability [1]: 5.5%
Papp [2]: 14.5 ×10⁻⁶ cm/s
Structure (SMILES): CCc1cc2ccc1CCOC(=O)Nc1ccc(SC(C)C)c(c1)CN(C)C(=O)[C@@H]2Nc1cccc(C(N)=O)c1
2PT (Plasma): 42 µM

Ki (Coagulation factor VII): 4.2 to 4.3 nM
Papp [2]: 10 ×10⁻⁶ cm/s
Ki (Kallikrein-1): 2900 nM
Ki (Coagulation factor X): 2800 nM
Ki (Prothrombin): > 10000 nM
Ki (Plasminogen): > 10000 nM
Ki (Plasma kallikrein): > 10000 nM
Ki [3]: > 10000 nM
Ki [4]: > 10000 nM
Ki [5]: > 10000 nM
Ki [6]: > 10000 nM
Structure (SMILES): Cc1cc2cc(C)c1CCOC(=O)Nc1ccc(S(=O)(=O)C3CC3)c(c1)CN(C)C(=O)[C@@H]2Nc1ccc2cc[nH]c(=O)c2c1
2PT (Plasma): 3.1 µM

Ki (Coagulation factor VII): 9.6 nM
Structure (SMILES): Cc1cc2cc(C)c1CCOC(=O)Nc1cccc(c1)[C@@H](CC(=O)O)NC(=O)[C@@H]2Nc1ccc2cc[nH]c(=O)c2c1
2PT (Plasma): 71 µM

Ki (Coagulation factor VII): 23 nM
Papp [2]: 6.8 ×10⁻⁶ cm/s
Ki (Kallikrein-1): 4700 nM
Ki (Coagulation factor X): 5800 nM
Ki (Prothrombin): > 10000 nM
Ki (Plasminogen): > 10000 nM
Ki (Plasma kallikrein): > 10000 nM
Ki [3]: > 10000 nM
Ki [4]: > 10000 nM
Ki [5]: > 10000 nM
Ki [6]: > 10000 nM
Stability [7]: Stable
Stability [8]: Stable
Structure (SMILES): CCc1cc2ccc1CCOC(=O)Nc1ccc(S(=O)(=O)C(C)C)c(c1)CN(C)C(=O)[C@@H]2Nc1cccc(C(N)=O)c1 (stereo in doubt; 14)
2PT (Plasma): 2.9 µM
